Results taken from US11672800B2, “Combination therapies with EHMT2 inhibitors” (Epizyme, Inc., priority 2017, dated 2023).

Legend:
Format in all cases: cell-based
MeWo = assay: In vitro combination study of Compound 205 with a second agent, melanoma cell proliferation (CellTiter Glo, Loewe synergy); settings: combination with Compound 205; for Combinatorial effect (Loewe method) of second agent with Compound 205, MeWo: 7 days pre-treatment with Compound 205, then 7 days co-treatment, ATP content, Loewe volume >1 synergy, -1 to 1 additivity; as to Combinatorial effect (Loewe method) of second agent with Compound 205, MeWo: key: SYN Synergy; ADD Additivity
Method: (§1) On day 14 plates were developed for endpoint analysis using CellTiter Glo to measure ATP content, which was used as an indicator of cell viability. DMSO concentration was kept constant throughout the assay at 0.2% v/v.
(§2) All cells were maintained and cultured at 37° C., in a humidified atmosphere and 5% CO2.
(§3) Loewe volumes greater than 1 denoted synergy and volumes below −1 denoted antagonism. A value between −1 and 1 denoted additivity.

WM-266-4 = assay: as above; settings: combination with Compound 205; for Combinatorial effect (Loewe method) of second agent with Compound 205, WM-266-4: 7 days pre-treatment with Compound 205, then 7 days co-treatment, ATP content, Loewe volume >1 synergy, -1 to 1 additivity; as to Combinatorial effect (Loewe method) of second agent with Compound 205, WM-266-4: key: SYN Synergy; ADD Additivity
Method: as §1, §2, §3

Jurkat = assay: In vitro long term proliferation (LTP), T-ALL cell line; settings: Homo sapiens, 336 h, 14 day LTP, absolute IC50, seeding density 100000, read-out: Compound A75 IC50
Method: (§4) Exponentially growing T-cell lymphocytic leukemia (T-ALL) cells were plated, in triplicate, in 96-well plates at the appropriate cell density in a final volume of 150 μl. Cells were incubated in the presence of increasing concentrations of Compound A75. Viable cell number was determined at day 0, 4, 7, 11 and 14 days using Calcein staining and using an Accumen instrument to enumerate the number of cells. On days of cell counts, growth media and Compound A75 were replaced and cells split back to initial density. Total cell number is expressed as split-adjusted viable cells per well. For each cell line, absolute IC50 values (concentration of compound at which 50% inhibition occurs) were determined from concentration-dependence curves at 14 days using Graphpad Prism software.

CCRF-CEM = assay: as above; settings: Homo sapiens, 336 h, 14 day LTP, absolute IC50, seeding density 100000, read-out: Compound A75 IC50
Method: as §4

TALL-1 = assay: as above; settings: Homo sapiens, 336 h, 14 day LTP, absolute IC50, seeding density 150000, read-out: Compound A75 IC50
Method: as §4

SUP-T1 = assay: as above; settings: Homo sapiens, 336 h, 14 day LTP, absolute IC50, seeding density 200000, read-out: Compound A75 IC50
Method: as §4

PEER = assay: as above; settings: Homo sapiens, 336 h, 14 day LTP, absolute IC50, seeding density 250000, read-out: Compound A75 IC50
Method: as §4

MOLT-4 = assay: as above; settings: Homo sapiens, 336 h, 14 day LTP, absolute IC50, seeding density 100000, read-out: Compound A75 IC50
Method: as §4

MOLT-16 = assay: as above; settings: Homo sapiens, 336 h, 14 day LTP, absolute IC50, seeding density 100000, read-out: Compound A75 IC50
Method: as §4

Nc1cc(C(F)(F)F)c(-c2cc(N3CCOCC3)nc(N3CCOCC3)n2)cn1 [BKM120, 5-(2,6-dimorpholin-4-ylpyrimidin-4-yl)-4-(trifluoromethyl)pyridin-2-amine]
Combinatorial effect (Loewe method) of second agent with Compound 205, MeWo (MeWo): SYN | Combinatorial effect (Loewe method) of second agent with Compound 205, WM-266-4 (WM-266-4): SYN

CC(C)Nc1cc(-c2c[nH]c(C(=O)N[C@H](CO)c3cccc(Cl)c3)c2)c(Cl)cn1 [BVD-523, N-[(1S)-1-(3-chlorophenyl)-2-hydroxyethyl]-4-[5-chloro-2-(propan-2-ylamino)-pyridin-4-yl]-1H-pyrrole-2-carboxamide]
Combinatorial effect (Loewe method) of second agent with Compound 205, MeWo (MeWo): ADD | Combinatorial effect (Loewe method) of second agent with Compound 205, WM-266-4 (WM-266-4): ADD

CNC1=Nc2cc(C#CCN3CCCCC3)c(OC)cc2C12CCC2 [Compound A75]
IC50 (Jurkat): 1000 to 5000 nM | IC50 (CCRF-CEM): 1000 to 5000 nM | IC50 (TALL-1): 5000 to 15000 nM | IC50 (SUP-T1): 5000 to 15000 nM | IC50 (PEER): < 100 nM | IC50 (MOLT-4): 100 to 1000 nM | IC50 (MOLT-16): 100 to 1000 nM

CO[C@H]1C[C@@H]2CC[C@@H](C)[C@@](O)(O2)C(=O)C(=O)N2CCCC[C@H]2C(=O)O[C@H]([C@H](C)C[C@@H]2CC[C@@H](OCCO)[C@H](OC)C2)CC(=O)[C@H](C)/C=C(\C)[C@@H](O)[C@@H](OC)C(=O)[C@H](C)C[C@H](C)/C=C/C=C/C=C/1C [Everolimus, everolimus]
Combination effect of Compound 205 and Everolimus (figure legend) (MeWo; MeWo melanoma cell line, FIG. 6): synergy | Combinatorial effect (Loewe method) of second agent with Compound 205, MeWo (MeWo): SYN | Combinatorial effect (Loewe method) of second agent with Compound 205, WM-266-4 (WM-266-4): SYN | Combination effect of Compound 205 and Everolimus (figure legend) (WM-266-4; WM-266-4 melanoma cell line, FIG. 6): synergy

CC(C)NC[C@@H](C(=O)N1CCN(c2ncnc3c2[C@H](C)C[C@H]3O)CC1)c1ccc(Cl)cc1 [GDC-0068, (2S)-2-(4-chlorophenyl)-1-[4-[(5R,7R)-7-hydroxy-5-methyl-6,7-dihydro-5H-cyclopenta[d]pyrimidin-4-yl]piperazin-1-yl]-3-(propan-2-ylamino)propan-1-one]
Combinatorial effect (Loewe method) of second agent with Compound 205, MeWo (MeWo): ADD | Combinatorial effect (Loewe method) of second agent with Compound 205, WM-266-4 (WM-266-4): SYN

NC1(c2ccc(-c3nc4ccn5c(=O)[nH]nc5c4cc3-c3ccccc3)cc2)CCC1 [MK-2206]
Combinatorial effect (Loewe method) of second agent with Compound 205, MeWo (MeWo): SYN | Combinatorial effect (Loewe method) of second agent with Compound 205, WM-266-4 (WM-266-4): SYN

CC(=O)c1c(C)c2cnc(Nc3ccc(N4CCNCC4)cn3)nc2n(C2CCCC2)c1=O [Palbociclib, palbociclib]
Combinatorial effect (Loewe method) of second agent with Compound 205, MeWo (MeWo): SYN | Combinatorial effect (Loewe method) of second agent with Compound 205, WM-266-4 (WM-266-4): SYN

CS(=O)(=O)N1CCN(Cc2cc3nc(-c4cccc5[nH]ncc45)nc(N4CCOCC4)c3s2)CC1 [Pictilisib, 4-[2-(1H-indazol-4-yl)-6-[(4-methylsulfonylpiperazin-1-yl)methyl]thieno[3,2-d]pyrimidin-4-yl]morpholine]
Combinatorial effect (Loewe method) of second agent with Compound 205, MeWo (MeWo): SYN | Combinatorial effect (Loewe method) of second agent with Compound 205, WM-266-4 (WM-266-4): SYN

Cn1cnc2c(F)c(Nc3ccc(Br)cc3Cl)c(C(=O)NOCCO)cc21 [Selumetinib, selumetinib]
Combinatorial effect (Loewe method) of second agent with Compound 205, MeWo (MeWo): ADD | Combinatorial effect (Loewe method) of second agent with Compound 205, WM-266-4 (WM-266-4): ADD

CNC(=O)c1cc(Oc2ccc(NC(=O)Nc3ccc(Cl)c(C(F)(F)F)c3)cc2)ccn1 [Sorafenib]
Combinatorial effect (Loewe method) of second agent with Compound 205, MeWo (MeWo): ADD | Combinatorial effect (Loewe method) of second agent with Compound 205, WM-266-4 (WM-266-4): SYN

CC(=O)Nc1cccc(-n2c(=O)n(C3CC3)c(=O)c3c(Nc4ccc(I)cc4F)n(C)c(=O)c(C)c32)c1 [Trametinib]
Combinatorial effect (Loewe method) of second agent with Compound 205, MeWo (MeWo): ADD | Combinatorial effect (Loewe method) of second agent with Compound 205, WM-266-4 (WM-266-4): ADD
